Entries after “also recorded” stand apart in the source; their conditions may differ. Where no end group is shown, it is not given here. [ ]: non-standard residue; d: D form.
Experiments:
[1] = Biological activity of D-amino acid versions of ST100,038 (test not specified); settings: tested against a control
Protocol: D-amino acid peptides can be made by generating a D-amino acid peptide with the same sequence as a L-amino acid peptide or by preparing a retro inverso form of a peptide. ST100,045 (SEQ ID NO.: 31) has the same sequence as ST100,038 (SEQ ID NO.: 29) was tested against ST100,059 (SEQ ID NO.: 30) which is the retro inverso version of ST100,038 and a control.

[2] = test system: RPMI-8226 human myeloma xenografts; experiment: RPMI-8226 human myeloma subcutaneous xenograft model; format: in vivo, mouse; settings: scid mice, FIG. 16
Protocol: Anti-tumor efficacy of test peptides was evaluated against RPMI-8226 human myeloma xenografts implanted subcutaneously (sc) in severe compromised immunodeficient (scid) mice.
Studies generally consisted of randomly-assigned groups of 8 or 10 mice per group, which were implanted sc with myeloma fragments (30-40 mg). In addition to groups tested with test peptides, studies usually included a vehicle-treated control group and a positive control group treated with an agent known to be active in the RPMI-8226 model. In one type of schedule, mice were treated IP with either vehicle or test peptides starting one day after tumor implantation (implantation day defined as Day 0). Test peptides and vehicle were generally administered IP daily for 3-4 weeks.
Dosing solutions of the test peptides were prepared weekly and kept at −20° C. between injections. […] Each tumor was measured by caliper in two dimensions and converted to tumor mass using the formula for a prolate ellipsoid (a X b^2/2), where a is the longer dimension and b is the smaller dimension, and assuming unit density (1 mm^3=1 mg). Tumor measurements were recorded twice weekly. Body weights were also recorded twice weekly. Anti-tumor activity was assessed by the delay in tumor growth of the treated groups in comparison to the vehicle-treated control group, partial and complete regressions, and tumor-free survivors. […]

[3] = Heparin binding activity, Hi Trap Heparin HP column, NaCl step elution; settings: for [NaCl] for elution: heparin column, step gradient in 10 mM NaH2PO4 pH 7
Source text: Liquid chromatography was used to determine the relative levels of heparin binding activity of the individual heparin binding domains and of the anti-angiogenic miniproteins that contains them. In this assay, the strength of the heparin binding activity is proportional to the amount of NaCl that is required to elute the peptide bound to the heparin column. Peptides with low binding activity are eluted with lower NaCl concentration, whereas higher concentrations of NaCl are required for peptides with higher binding activity.
Hi Trap Heparin HP column (1 ml, Amersham Biosciences) was equilibrated with 10 column volumes (CV) of equilibration (EQ) buffer=10 mM NaH2PO4 pH 7. All buffers were loaded onto columns via syringes. 500 μl fractions are collected (flow rate=1 ml/minute). 500 μg of peptide (1 mg/ml, resuspended in EQ buffer) was added to each column and the flow through was collected for analysis. The columns were then washed with 3 CV of EQ buffer. Peptides are then eluted with a step gradient of 500, 625, 750, 875 mM NaCl in EQ buffer, 2 CV per each step. A final step of 3 CV of 1000 mM NaCl in EQ buffer was collected in 500 μl fractions. The A210 nm was measured using EQ and elution buffers as blanks.

[4] = test system: B16-F1 melanoma cells; experiment: Subcutaneous B16 melanoma tumor growth in vivo; design: species or system mouse; settings: 20 mg/kg daily IP; for Inhibition of tumor growth: vs untreated controls, FIG. 12 and 14
Protocol: Because of the importance of the angiogenic process for tumorigenesis, miniproteins as described herein, were hypothesized to show good anti-tumor activity. The peptides of the invention were tested in an in vivo model of anti-tumor activity. This model compares the growth of subcutaneous B16 melanoma tumor in vivo either untreated or treated with various amount of miniproteins described in this application. This model is widely accepted in the art as a model to test the anti-tumor activity of compounds that inhibit tumor growth because they have anti-angiogenic activity.
Male C57BL/6 mice were obtained with a mean body weight of 20±2 g. Mouse B16-F1 melanoma cells were implanted subcutaneously (5×10^5 cell per animal). Peptides (formulated in water) were administered ip daily at the amount indicated starting the day after cells injection. In general, tumors became palpable around 9 days after injection of cells. Tumor were then measured every 2 days.

[5] = test system: Bovine Retinal Endothelial Cells (BRE); experiment: VEGF-mediated survival/proliferation of bovine retinal endothelial cells (WST1); format: cell-based; settings: VEGF 25 ng/ml, 72 hours, FIG. 4 and 5
Protocol: (§1) The anti-angiogenic activities of the peptides were tested by measuring the level of inhibition of VEGF and bFGF mediated survival/proliferation of Bovine Retinal Endothelial Cells (BRE), Human Dermal Microvasculature Endothelial Cells, and Human Umbilical Vein Endothelial Cells, all of which are standard cell lines used to test anti-angiogenic compounds.
Bovine retinal endothelial (BRE) cells were maintained in Cambrex EG2 media. For non-adherent cell assays, on day one cells were starved for either 6 hours or overnight, then trypsinized and plated in 96-well plates in 100 μl of Optimem plus 1% fetal bovine serum (FBS). One hundred μl of Optimem plus 1% FBS was added to the wells containing, where appropriate, VEGF to a final concentration of 25 ng/ml, and the various peptides to final concentrations as described. For adherent cells, cells were plated in 96-well plates in complete media, allowed to adhere overnight, washed in starvation media (Optimem plus 1% FBS) and then starved during the day. At the end of the day, 100 μl of Optimem plus 1% FBS was added to the wells containing, where appropriate, VEGF to a final concentration of 25 ng/ml and the various peptides to final concentrations as described.
(§2) In all cases, after 72 hours incubation, the amount of live cells in each well was measured with the WST1 assay (Roche).

[6] = test system: Human Dermal Microvasculature Endothelial Cells; experiment: bFGF-mediated survival/proliferation of human dermal microvasculature endothelial cells; format: cell-based; settings: 30, 100, and 200 μg/ml, FIG. 8
Protocol: as §1, §2
(§3) In a further experiment, the anti-angiogenic activity of peptide ST100,061 (SEQ ID NO.: 3), a derivative of ST100,032 (SEQ-ID NO.: 1), at concentrations of 30, 100, and 200 μg/ml was tested by measuring the level of inhibition of VEGF and bFGF mediated survival/proliferation in human dermal microvasculature endothelial cells.

[7] = test system: Human Dermal Microvasculature Endothelial Cells; experiment: VEGF-mediated survival/proliferation of human dermal microvasculature endothelial cells; format: cell-based; settings: 30, 100, and 200 μg/ml, FIG. 8
Protocol: as §1, §2, §3

[8] = test system: L1210; experiment: Tumor cell proliferation (WST-1), L1210; format: cell-based, mouse; settings: FIG. 11
Protocol: Peptides to be tested were prepared at a stock concentration of 10 mM in sterile phosphate buffered saline. Cancer cell lines obtained from the American Type Culture Collection (MG-63, HT1080, A498, BxPC3, 786-0, PC-3, B16F1, B16F10, P388D1, Jurkat, MOLT4, THP-1, U-937, L1210, RPMI 8226, NCI H929, U266B1, K562) were cultured under appropriate conditions as described in the literature. Cell culture media and reagents were obtained from ATCC (Manassas, Va.), Invitrogen (Carlsbad, Calif.) or Mediatech (Herndon, Va.). Exponentially growing cultures were used for cell proliferation assays. Adherent cells were plated at a concentration of 100000 cells per milliter in growth media overnight (18-24 h) and treated the next day in a low serum media (growth media with 1% FBS for MG-63, HT1080, A498, BxPC3, PC-3, B16F1, B16F10. 786-0 cells were treated in media with 5% FBS). Suspension cell lines (P388D1, Jurkat, MOLT4, THP-1, U-937, L1210, RPMI 8226, NCI H929, U266B1, and K562) were diluted to a concentration of 100,000 cells per ml and treated on the same day with peptides. Peptides were diluted in treatment media and cells were treated for 48 or 72 hours depending on the cell line. Each dose was tested in triplicate for each experiment, and experiments were repeated for a minimum of three discrete times. After incubation, the relative number of cells was determined using WST-1 (Roche Applied Science). A 9.5 μl aliquot of WST-1 was added to each well. The plate was immediately read at 440 nm using a Bio-Tek PowerWave XS microplate reader, incubated for 2-3 hours at 37° C. and then read again. Cell proliferation was determined as the percent of the control cell proliferation. The absorbance of each well at time 0 was subtracted from the value of the final reading. Afterwards the blank values were averaged and subtracted from each test and control value. Finally, each test absorbance was divided by the average of the control absorbances and multiplied by 100 to obtain the percent of control. […]

[9] = test system: Human Umbilical Vein Endothelial Cells; experiment: bFGF-mediated survival/proliferation of human umbilical vein endothelial cells (WST1); format: cell-based; settings: FIG. 6, 9, 10, 17
Protocol: as §1
Human umbilical cord endothelial (HUVEC) cells were maintained in Cambrex EGM-2MV media. On day one, cells were starved overnight in 1% FBS in M200 media (Cascade Biologicals). The morning after, the media were replaced with serum-free media (control) or media containing 25 ng/ml of human VEGF165 and the various peptides to final concentrations as described.
as §2

[10] = test system: tumor cells; experiment: Ability to induce tumor cell death (general statement); format: cell-based
Protocol: Peptides to be tested were prepared at a stock concentration of 10 mM in sterile phosphate buffered saline. Cancer cell lines obtained from the American Type Culture Collection (MG-63, HT1080, A498, BxPC3, 786-0, PC-3, B16F1, B16F10, P388D1, Jurkat, MOLT4, THP-1, U-937, L1210, RPMI 8226, NCI H929, U266B1, K562) were cultured under appropriate conditions as described in the literature. Cell culture media and reagents were obtained from ATCC (Manassas, Va.), Invitrogen (Carlsbad, Calif.) or Mediatech (Herndon, Va.). Exponentially growing cultures were used for cell proliferation assays. […] After incubation, the relative number of cells was determined using WST-1 (Roche Applied Science). […] The plate was immediately read at 440 nm using a Bio-Tek PowerWave XS microplate reader, incubated for 2-3 hours at 37° C. and then read again. Cell proliferation was determined as the percent of the control cell proliferation. The absorbance of each well at time 0 was subtracted from the value of the final reading. […] Finally, each test absorbance was divided by the average of the control absorbances and multiplied by 100 to obtain the percent of control.

[11] = test system: L1210 murine leukemia cells; experiment: L1210 murine leukemia intravenous model, survival; format: in vivo, mouse; settings: dosed IP, FIG. 15a
Protocol: Antitumor activity of test peptides, administered intraperitoneally (IP), were evaluated against L1210 murine leukemia cells implanted intravenously (IV) in DBA/2 mice.
Studies generally consisted of randomly-assigned groups of 8 mice per group, which were inoculated IV with 1×10^5 cells per mouse from an in vivo leukemia cell line. In addition to groups tested with test peptides, studies usually included a vehicle-treated control group and a positive control group treated with an agent known to be active in the L1210 leukemia model. Starting one day after tumor inoculation (inoculation day defined as Day 0), mice were treated IP with either vehicle or test peptides in various schedules. Generally this consisted of treatment every other day for approximately 1 week (e.g., Days 1, 3, 5 and 7). A positive agent (e.g., cyclophosphamide) was usually given as a single IP injection on Day 1. All dosing solutions were prepared on each day of treatment. Survival was monitored daily and body weights were measured twice weekly. Anti-tumor activity was assessed by the increase in lifespan of the treated groups in comparison to the vehicle-treated control group. Studies with the L1210 leukemia model were limited to 30 days.

Sequence | biological activity [1] | [NaCl] for elution [3] | Inhibition of tumor growth [4] | Inhibition of proliferation of mouse leukemia L1210 cells [8] | Inhibition of bFGF-mediated survival [9] | other results
ATSLPPHSSQSP (also: D-amino acids noted, form not shown; listed as Homo sapiens) [ST100,045] | Only the retro inverso form of ST100,038, (ST100,059; SEQ ID NO.: 30) was found to be biologically active |  |  |  |  | 
PSQSSHPPLSTA ([dP][dS][dQ][dS][dS][dH][dP][dP][dL][dS][dT][dA]; listed as Homo sapiens) [ST100,059, retro inverso version of ST100,038] | biologically active | 0 mM | clearly inhibit tumor growth |  |  | Inhibition of tumor growth ([2]; 100 mg/kg daily IP): does not inhibit tumor growth; P (ANOVA) of tumor growth inhibition ([4]; FIG. 12): < 0.05; Inhibition of VEGF-mediated survival/proliferation [5]: VEGF stimulation was inhibited with increasing doses
PYDGRGDSVVYGLRKKKAARGRRAARGRR (listed as Homo sapiens) [ST100,061] |  |  | may be less active |  |  | Inhibition of bFGF mediated survival/proliferation [6]: effective in inhibiting both VEGF and bFGF; Inhibition of VEGF mediated survival/proliferation [7]: effective in inhibiting both VEGF and bFGF
RLGYVVSDGRGDYP (listed as Homo sapiens) [ST100,077] |  |  |  | Neither ST100,077 (SEQ ID NO.: 16) encoding the integrin binding domain or ST100,078 (SEQ ID NO.: 17) encoding the heparin binding domain or the simple combination of the two peptides (ST100,077 and ST100,078) blocked cell proliferation or induced cell death |  | 
RRGRAARRGRAAKKK (listed as Homo sapiens) [ST100,078] |  | 875 mM |  | Neither ST100,077 (SEQ ID NO.: 16) encoding the integrin binding domain or ST100,078 (SEQ ID NO.: 17) encoding the heparin binding domain or the simple combination of the two peptides (ST100,077 and ST100,078) blocked cell proliferation or induced cell death | not as potent | 
RRGRAARRGRAAKKKRLGYVVSDGRGDYP [ST100,064, retro-inverso form of ST100,061] |  | 875 mM |  | able to block cell proliferation and induce cell death | can inhibit bFGF mediated survival as effectively as ST100,061; also recorded: the most active in inhibiting bFGF stimulation | Inhibition of tumor growth ([2]; 25 mg/kg daily IP): able to inhibit tumor growth; ability to induce tumor cell death (comparison in words) [10]: much more active; heparin binding activity (comparison in words) [3]: much more active; also recorded: bind less strongly than ST100,082; Survival ([11]; DBA/2 mice): statistically significant increases in survival; mice (cured mice) that survived longer than 30 days [11]: Sixty to eighty
